The GI50 is the concentration that inhibits growth by half.

A value given as a limit tells only on which side of the number the result lay.

Data set [1] relates to DCTN1-RET fusion gene-expressing NIH/3T3 cells. In words: In vitro cell growth assay, 3-dimensional cell culture, intracellular ATP luminescence (CellTiter-Glo 2.0). The note with it: for GI50: Mus musculus, NIH3T3.
Data set [2] deals with DCTN1-RET fusion protein. In words: Inhibition of DCTN1-RET fusion protein expression by siRNA (western blotting). The note with it: siRNA treatment overnight, DCTN1-RET fusion gene-expressing NIH/3T3 cells, FIG. 7. Format: cell-based, human. (A western blot detects proteins with antibodies after separation by electrophoresis.)
Data set [3] has as its system DCTN1-RET fusion gene-expressing NIH/3T3 cells. As to the kind of experiment: Cell growth inhibitory effect of siRNA, 3-dimensional cell culture. The note with it: 3-dimensional cell culture after siRNA treatment; no treatment 4.9 times, negative control siRNA 3.6 times; FIG. 8. The data set is classed as cell-based, mouse. As for the experimental part: NIH/3T3 cells grow well under 2-dimensional cell culture conditions, but barely grow under 3-dimensional cell culture conditions. However, NIH/3T3 cells are also known to grow under 3-dimensional cell culture conditions when an oncogene is expressed in the cells. Thus, whether the DCTN1-RET fusion gene is an oncogene was confirmed using this character. DCTN1-RET fusion gene-expressing NIH/3T3 cells and NIH/3T3 cells were cultured at 37° C. in 5% CO2 in a 2-dimensional cell culture; and collected with trypsin, followed by counting the number of cells. To perform a 3-dimensional cell culture, a medium for 3-dimensional cell culture was prepared using an FCeM-series Preparation Kit (Nissan Chemical Industries, Ltd.), D-MEM (high glucose) (containing L-glutamine, phenol red, sodium pyruvate, and 1500 mg/L sodium hydrogen carbonate) (Wako), and newborn calf serum (NBCS) (Gibco). […] The day following seeding (day 1) and after 8 days from seeding (day 8), the luminescence level (counts per second: cps) was measured using a detection reagent for intracellular ATP luminescence (CellTiter-Glo 2.0 reagent, Promega) with a luminometer (EnSpire, PerkinElmer), and the result was determined to be the indicator for viable cell count. The cell growth rate was then calculated from the measurement result on day 1 and the measurement result on day 8 (N=3). […]
Subsequently, to confirm a cell growth inhibitory effect, cells were collected with trypsin from the wells without treatment and wells treated with siRNA, and the number of cells was counted. A 3-dimensional cell culture was then performed in the same manner as in Example 5, and on the day seeding was performed (day 0) and after 4 days from seeding (day 4), the number of viable cells was counted in the same manner as in Example 5. The growth rate of the cells was calculated from the measurement result on day 0 and the measurement result on day 4.

Data set [4] deals with T1, phosphorylated RET in DCTN1-RET fusion gene-expressing NIH/3T3 cells (Homo sapiens, UniProt P07949).
T1 construct: expressed in transfected cells; the other entry of the earlier key: Dctn1 (O08788, Dynactin subunit 1)
T1 sequence (P07949 with tags, fused parts or gaps with the stated changes): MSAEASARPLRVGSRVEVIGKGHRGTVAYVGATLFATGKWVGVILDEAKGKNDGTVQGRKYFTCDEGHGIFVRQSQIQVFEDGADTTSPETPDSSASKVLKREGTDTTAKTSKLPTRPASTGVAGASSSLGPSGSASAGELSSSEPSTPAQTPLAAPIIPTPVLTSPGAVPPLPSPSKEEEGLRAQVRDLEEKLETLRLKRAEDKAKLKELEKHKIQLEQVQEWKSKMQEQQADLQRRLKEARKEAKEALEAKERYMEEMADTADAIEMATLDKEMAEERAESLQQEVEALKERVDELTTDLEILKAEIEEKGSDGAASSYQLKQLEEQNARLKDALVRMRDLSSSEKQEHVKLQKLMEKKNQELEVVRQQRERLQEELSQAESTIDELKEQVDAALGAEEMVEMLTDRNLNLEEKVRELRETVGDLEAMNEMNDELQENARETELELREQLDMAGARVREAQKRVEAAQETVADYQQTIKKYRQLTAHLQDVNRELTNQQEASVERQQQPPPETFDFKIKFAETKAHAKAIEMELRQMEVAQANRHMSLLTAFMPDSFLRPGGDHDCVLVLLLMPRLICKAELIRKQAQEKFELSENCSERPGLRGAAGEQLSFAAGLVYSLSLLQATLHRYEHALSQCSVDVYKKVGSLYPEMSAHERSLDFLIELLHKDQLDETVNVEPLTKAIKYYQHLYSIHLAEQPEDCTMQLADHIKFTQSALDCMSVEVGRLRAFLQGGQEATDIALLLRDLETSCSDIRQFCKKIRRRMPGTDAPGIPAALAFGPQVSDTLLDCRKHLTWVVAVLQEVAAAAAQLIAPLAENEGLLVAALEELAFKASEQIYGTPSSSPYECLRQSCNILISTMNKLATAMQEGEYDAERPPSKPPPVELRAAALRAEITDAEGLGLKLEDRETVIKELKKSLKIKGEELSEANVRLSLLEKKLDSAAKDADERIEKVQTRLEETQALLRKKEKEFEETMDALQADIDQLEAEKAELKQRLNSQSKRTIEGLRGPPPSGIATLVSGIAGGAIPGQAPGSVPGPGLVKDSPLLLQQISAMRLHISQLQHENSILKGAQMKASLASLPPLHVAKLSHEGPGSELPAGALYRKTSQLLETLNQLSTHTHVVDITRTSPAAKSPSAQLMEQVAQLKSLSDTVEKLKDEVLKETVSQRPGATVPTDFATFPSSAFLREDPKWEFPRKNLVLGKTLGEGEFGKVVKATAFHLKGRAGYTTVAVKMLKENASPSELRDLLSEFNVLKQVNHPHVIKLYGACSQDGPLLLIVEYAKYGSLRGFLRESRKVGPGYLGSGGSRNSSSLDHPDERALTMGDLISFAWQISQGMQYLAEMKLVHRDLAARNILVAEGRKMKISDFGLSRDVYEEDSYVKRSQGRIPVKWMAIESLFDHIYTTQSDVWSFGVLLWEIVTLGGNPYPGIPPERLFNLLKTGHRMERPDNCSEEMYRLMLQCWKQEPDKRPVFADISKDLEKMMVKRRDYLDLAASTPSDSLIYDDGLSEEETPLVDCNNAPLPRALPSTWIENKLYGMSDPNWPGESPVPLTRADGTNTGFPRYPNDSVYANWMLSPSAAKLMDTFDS
As to the kind of experiment: Inhibition of RET phosphorylation in DCTN1-RET fusion gene-expressing cells (western blotting). The data set is classed as cell-based. To be noted: 1000, 100 and 10 nmol/L, 1 hour incubation, FIG. 9. As for the experimental part: The expression of DCTN1-RET fusion protein in the obtained DCTN1-RET fusion gene-expressing NIH/3T3 cells was confirmed by western blotting. Specifically, the medium was removed from the culture flask, followed by washing with PBS once. Sample Diluent Concentrate 2 (R&D Systems) containing a phosphatase inhibitor (Roche) and a protease inhibitor (Roche) was added to the culture flask, and the cell lysate was collected with a scraper. From the collected cell lysate, a protein sample was obtained by centrifugation. The protein sample was subjected to protein determination, and the protein concentration was adjusted to a prescribed concentration. […] After the membrane was washed with TBS-T, the protein was detected using a SuperSignal West Dura Extended Duration Substrate (Thermo Fisher) with an Amersham Imager 600 lumino image analyzer (GE Healthcare). The molecular weight of the detected protein was confirmed with Precision Plus Protein Kaleidoscope Prestained Protein Standards (Bio-Rad). As shown in FIG. 4a) and 4b), endogenous RET (150 and 175 kDa) was not detected when the anti-pRET antibody or the anti-RET antibody was used. […] Additionally, as shown in FIG. 4c), endogenous DCTN1 was detected at around 150 kDa in the use of the anti-DCTN1 antibody. […]

On to `COc1cc2nccc(Oc3ccc(NC(=O)C4(C(=O)Nc5ccc(F)cc5)CC4)cc3)c2cc1OC` [Cabozantinib], for which the concentration for 50% growth inhibition (GI50) in data set [1] is 0.0911 µM.

Regarding `COc1cc2c(Nc3ccc(Br)cc3F)ncnc2cc1OCC1CCN(C)CC1` [Vandetanib], growth in data set [1] was halved (GI50) at 0.0687 µM.

Compound `COCc1ccc(NC(=O)c2c(C#CCN3CCOCC3)n(C3(C)CC3)c3ncnc(N)c23)cc1` [Compound 6, 4-amino-N-[4-(methoxymethyl)phenyl]-7-(1-methylcyclopropyl)-6-(3-morpholinopro-1-pyn-1-yl)-7H-pyrrolo[2,3-d]pyrimidine-5-carboxamide] showed a GI50 in data set [1] of 0.0036 µM.

Turning to “GGAUUGAAAACAAACUCUATT (GGAUUGAAAACAAACUCUANN; listed as RNA, chemistry not given here) [RET siRNA2, siRNA targeting human RET]”, the “expression of the DCTN1-RET fusion protein” value (“expression” below) in data set [2] was “inhibited”. Further, in data set [3], the “growth: number of cells on day 4 relative to day 0” value (from here on “growth … on day 4 relative to day 0”) is reported as roughly 2.4 times.

`COc1cc2nccc(Oc3ccc(NC(=O)NC4CC4)c(Cl)c3)c2cc1C(N)=O` [Lenvatinib]: the “phosphorylated RET levels” value in data set [4] is recorded as “notably decreased”. Further, the GI50 in data set [1] stood at 0.0503 µM. The “growth of DCTN1-RET fusion gene-expressing NIH/3T3 cells” value in data set [1] (result in words, as shown in Table 7) was “inhibited the growth”.

As to `CCc1cc2c(cc1N1CCC(N3CCOCC3)CC1)C(C)(C)c1[nH]c3cc(C#N)ccc3c1C2=O` [Alectinib], in data set [1], the GI50 was greater than 1 µM.

For the compound “CACAUGUCAUCAAAUUGUATT (CACAUGUCAUCAAAUUGUANN; listed as RNA, chemistry not given here) [RET siRNA1, siRNA targeting human RET]”, the “expression” value in data set [2] was “inhibited”. The “growth … on day 4 relative to day 0” value in data set [3] was “about 2.0 times”.

With “CCACUGCUACCACAAGUUUTT (CCACUGCUACCACAAGUUUNN; listed as RNA, chemistry not given here) [RET siRNA3, siRNA targeting human RET]”, the “expression” value in data set [2] is reported as “not inhibited”. For the same compound, the “growth … on day 4 relative to day 0” value in data set [3] is 3.7 times.
